Results reported in patent publication US10435399B2, “HDAC6 inhibitory heterocyclic compound” (TAKEDA PHARMACEUTICAL COMPANY LIMITED, priority 2017, dated 2019).

target: T1, HDAC6 enzyme (Homo sapiens, UniProt Q9UBN7); assay: HDAC6 enzyme inhibitory activity (HDAC-Glo I/II Assay kit); format: biochemical; conditions: 10 μM; wells without enzyme = 100% inhibition
T1 construct: transducing full length HDAC6 gene into Sf-9 insect cells; GST; purchased SignalChem; host or cells: Sf-9 insect cells
T1 sequence (Q9UBN7 1-1215): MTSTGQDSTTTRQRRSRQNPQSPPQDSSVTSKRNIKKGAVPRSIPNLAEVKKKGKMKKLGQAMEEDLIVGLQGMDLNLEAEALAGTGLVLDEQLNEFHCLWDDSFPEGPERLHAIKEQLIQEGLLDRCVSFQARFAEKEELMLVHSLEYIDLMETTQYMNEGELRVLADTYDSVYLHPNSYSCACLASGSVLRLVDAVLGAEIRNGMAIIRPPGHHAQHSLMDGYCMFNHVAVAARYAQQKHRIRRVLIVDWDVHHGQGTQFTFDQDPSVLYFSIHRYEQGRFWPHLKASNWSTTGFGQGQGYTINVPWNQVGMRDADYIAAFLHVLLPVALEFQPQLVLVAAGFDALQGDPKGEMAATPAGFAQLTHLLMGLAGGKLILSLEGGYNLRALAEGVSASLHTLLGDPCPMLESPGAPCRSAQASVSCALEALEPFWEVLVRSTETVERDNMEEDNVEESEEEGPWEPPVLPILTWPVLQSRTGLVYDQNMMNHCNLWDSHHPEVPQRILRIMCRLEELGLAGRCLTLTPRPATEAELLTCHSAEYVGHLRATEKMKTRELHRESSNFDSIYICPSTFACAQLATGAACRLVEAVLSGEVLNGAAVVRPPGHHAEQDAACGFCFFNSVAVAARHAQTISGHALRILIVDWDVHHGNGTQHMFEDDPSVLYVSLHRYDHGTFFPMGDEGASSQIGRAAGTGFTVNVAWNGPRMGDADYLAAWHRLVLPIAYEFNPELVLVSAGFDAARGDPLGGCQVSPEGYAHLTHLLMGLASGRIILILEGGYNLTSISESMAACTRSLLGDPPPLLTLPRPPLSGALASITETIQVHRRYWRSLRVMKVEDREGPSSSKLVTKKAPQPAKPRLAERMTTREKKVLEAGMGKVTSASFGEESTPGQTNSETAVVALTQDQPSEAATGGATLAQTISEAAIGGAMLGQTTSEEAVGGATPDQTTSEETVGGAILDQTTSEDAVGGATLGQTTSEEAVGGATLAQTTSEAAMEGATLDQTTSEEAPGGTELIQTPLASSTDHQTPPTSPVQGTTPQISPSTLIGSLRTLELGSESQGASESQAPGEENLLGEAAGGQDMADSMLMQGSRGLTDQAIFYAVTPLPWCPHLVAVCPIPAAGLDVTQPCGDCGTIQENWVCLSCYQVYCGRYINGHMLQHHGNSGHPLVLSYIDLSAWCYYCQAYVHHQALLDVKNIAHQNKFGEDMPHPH
Procedure, shortened: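 Sf-9-derived GST-purified full-length HDAC6 + cpd, 60 min RT, 24 mM Tris pH 7.5/0.6 mM glutathione/0.01% Tween-20; add HDAC-Glo substrate-developer, 20 min RT; luminescence. No-enzyme = 100% inhibition.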

Structure (SMILES)	HDAC6 inhibitory rate (%) (10 μM)
O=C1c2cc(-c3nnc(C(F)F)o3)ccc2CN1N1CCC(F)(F)CC1c1ccc(F)cc1 (stereo not drawn) [Example 573, 2-(4,4-difluoro-2-(4-fluorophenyl)piperidin-1-yl)-6-(5-(difluoromethyl)-1,3,4-oxadiazol-2-yl)isoindolin-1-one (optical isomer)]	99

same assay, conditions: 10 μM; wells without enzyme = 100% inhibition; read-out: HDAC6 inhibitory rate (%) (10 μM)

Structure (SMILES)	inhibition at 10 µM [%]
CC(C)C(=O)N[C@@H]1CCCC[C@H]1N1Cc2ccc(-c3nnc(C(F)F)o3)cc2C1=O [Example 9, N-((1R,2R)-2-(6-(5-(difluoromethyl)-1,3,4-oxadiazol-2-yl)-1-oxo-1,3-dihydro-2H-isoindol-2-yl)cyclohexyl)-2-methylpropanamide]	102
O=C1c2cc(-c3nnc(C(F)F)o3)ccc2CN1c1ccccc1Cc1ccccc1 [Example 487, 2-(2-benzyl-phenyl)-6-(5-(difluoro-methyl)-1,3,4-oxadiazol-2-yl) isoindolin-1-one]	99
O=C1c2cc(-c3nnc(C(F)F)o3)ccc2CN1[C@@H]1CCCC[C@H]1n1cc2ccccc2n1 [Example 55, 6-(5-(difluoromethyl)-1,3,4-oxadiazol-2-yl)-2-((1R,2R)-2-(2H-indazol-2-yl)cyclohexyl)isoindolin-1-one]	101
O=C1c2cc(-c3nnc(C(F)F)o3)ccc2CN1c1ccccc1-c1cccc(F)c1 [Example 278, 6-(5-(difluoromethyl)-1,3,4-oxadiazol-2-yl)-2-(3′-fluorobiphenyl-2-yl)-isoindolin-1-one]	99
CC(C)(C)OC(=O)N1CCC[C@H]1CN1Cc2c(F)cc(-c3nnc(C(F)F)o3)cc2C1=O [Example 275, tert-butyl (2S)-2-((6-(5-(difluoromethyl)-1,3,4-oxadiazol-2-yl)-4-fluoro-1-oxo-1,3-dihydro-2H-isoindol-2-yl)methyl)-pyrrolidine-1-carboxylate]	98
Cc1cc(C)n([C@@H]2CCCC[C@H]2N2Cc3ccc(-c4nnc(C(F)F)o4)cc3C2=O)n1 [Example 61, 6-(5-(difluoromethyl)-1,3,4-oxadiazol-2-yl)-2-((1R,2R)-2-(3,5-dimethyl-1H-pyrazol-1-yl)cyclohexyl)isoindolin-1-one]	99
CC(C)(O)C(=O)N[C@@H]1CCCC[C@H]1N1Cc2ccc(-c3nnc(C(F)F)o3)cc2C1=O [Example 81, N-((1R,2R)-2-(6-(5-(difluoromethyl)-1,3,4-oxadiazol-2-yl)-1-oxo-1,3-dihydro-2H-isoindol-2-yl)cyclohexyl)-2-hydroxy-2-methylpropanamide]	101
CCCCC(=O)N[C@@H]1CCCC[C@H]1N1Cc2ccc(-c3nnc(C(F)F)o3)cc2C1=O [Example 39, N-((1R,2R)-2-(6-(5-(difluoromethyl)-1,3,4-oxadiazol-2-yl)-1-oxo-1,3-dihydro-2H-isoindol-2-yl)cyclohexyl)pentanamide]	96
Cn1cc(-c2cccc(F)c2)c(N2Cc3ccc(-c4nnc(C(F)F)o4)cc3C2=O)n1 [Example 384, 6-(5-(difluoro-methyl)-1,3,4-oxadiazol-2-yl)-2-(4-(3-fluoro-phenyl)-1-methyl-1H-pyrazol-3-yl) isoindolin-1-one]	99
N#Cc1cccc(-c2ccccc2N2Cc3ncc(-c4nnc(C(F)F)o4)cc3C2=O)c1 [Example 243, 2′-(3-(5-(difluoromethyl)-1,3,4-oxadiazol-2-yl)-5-oxo-5,7-dihydro-6H-pyrrolo[3,4-b]pyridin-6-yl)biphenyl-3-carbonitrile]	99
CC(C)(O)CC(=O)N[C@@H]1CCCC[C@H]1N1Cc2ccc(-c3nnc(C(F)F)o3)cc2C1=O [Example 83, N-((1R,2R)-2-(6-(5-(difluoromethyl)-1,3,4-oxadiazol-2-yl)-1-oxo-1,3-dihydro-2H-isoindol-2-yl)cyclohexyl)-3-hydroxy-3-methylbutanamide]	102
O=C(N[C@@H]1CCCC[C@H]1N1Cc2ccc(-c3nnc(C(F)F)o3)cc2C1=O)OC1CC1 [Example 8, cyclopropyl ((1R,2R)-2-(6-(5-(difluoromethyl)-1,3,4-oxadiazol-2-yl)-1-oxo-1,3-dihydro-2H-isoindol-2-yl)cyclohexyl)carbamate]	101
CC(C)(OC(=O)N[C@H]1[C@H](N2Cc3ncc(-c4nnc(C(F)F)o4)cc3C2=O)CCCC1(F)F)C(F)F [Example 608, 1,1-difluoro-2-methylpropan-2-yl ((1S,6R)-6-(3-(5-(difluoromethyl)-1,3,4-oxadiazol-2-yl)-5-oxo-5,7-dihydro-6H-pyrrolo[3,4-b]pyridin-6-yl)-2,2-difluorocyclohexyl)carbamate]	99
O=C1c2cc(-c3nnc(C(F)F)o3)cc(F)c2CN1C[C@H]1COCCN1CC(F)(F)C(F)F [Example 228, 6-(5-(difluoromethyl)-1,3,4-oxadiazol-2-yl)-4-fluoro-2-(((3S)-4-(2,2,3,3-tetrafluoropropyl)morpholin-3-yl)-methyl)isoindolin-1-one]	98
CC(C)(C(=O)N[C@H]1[C@H](N2Cc3ncc(-c4nnc(C(F)F)o4)cc3C2=O)CCCC1(F)F)C(F)(F)F [Example 605, N-((1S,6R)-6-(3-(5-(difluoromethyl)-1,3,4-oxadiazol-2-yl)-5-oxo-5,7-dihydro-6H-pyrrolo[3,4-b]pyridin-6-yl)-2,2-difluorocyclohexyl)-3,3,3-trifluoro-2,2-dimethylpropanamide]	99
O=C1c2cc(-c3nnc(C(F)F)o3)cnc2CN1Cc1cccc(Cl)c1 [Example 342, 6-(3-chlorobenzyl)-3-(5-(difluoromethyl)-1,3,4,- oxadiazol-2-yl)-6,7-dihydro-5H-pyrrolo[3,4-b]pyridin-5-one]	100
Cc1ccc(C2CC(F)(F)CCN2N2Cc3ccc(-c4nnc(C(F)F)o4)cc3C2=O)nc1 (stereo not drawn) [Example 600, 6-(5-(difluoromethyl)-1,3,4-oxadiazol-2-yl)-2-(4,4-difluoro-2-(5-methylpyridin-2-yl)piperidin-1-yl)isoindolin-1-one]	100
CS(=O)(=O)c1cccc(CN2Cc3ccc(-c4nnc(C(F)F)o4)cc3C2=O)c1 [Example 145, 6-(5-(difluoromethyl)-1,3,4-oxadiazol-2-yl)-2-(3-(methylsulfonyl)benzyl)isoindolin-1-one]	100
O=C1c2cc(-c3nnc(C(F)F)o3)cnc2CN1[C@@H]1CCCC[C@H]1c1ccn[nH]1 (racemic) [Example 654, 3-[5-(difluoromethyl)-1,3,4-oxadiazol-2-yl]-6-[(1RS,2RS)-2-(1H-pyrazol-5-yl)cyclohexyl]-6,7-dihydro-5H-pyrrolo[3,4-b]pyridin-5-one]	100
N#Cc1cccc(-c2cc(Cl)ccc2N2Cc3ccc(-c4nnc(C(F)F)o4)cc3C2=O)c1 [Example 248, 5′-chloro-2′-(6-(5-(difluoro-methyl)-1,3,4-oxadiazol-2-yl)-1-oxo-1,3-dihydro-2H-isoindol-2-yl)biphenyl-3-carbonitrile]	100
Cn1cc(C(=O)NCC(F)(F)F)c(N2Cc3ccc(-c4nnc(C(F)F)o4)cc3C2=O)n1 [Example 567, 3-(6-(5-(difluoromethyl)-1,3,4-oxadiazol-2-yl)-1-oxo-1,3-dihydro-2H-isoindol-2-yl)-1-methyl-N-(2,2,2-trifluoroethyl)-1H-pyrazole-4-carboxamide]	95
O=C1c2cc(-c3nnc(C(F)F)o3)ccc2CN1c1ccccc1-c1cccc(C2CC2)c1 [Example 286, 2-(3′-cyclopropylbiphenyl-2-yl)-6-(5-(difluoromethyl)-1,3,4-oxadiazol-2-yl)isoindolin-1-one]	99

same assay, conditions: read-out: HDAC6 inhibitory rate (%) (10 μM)

Structure (SMILES)	inhibition at 10 µM [%]
O=C1c2cc(-c3nnc(C(F)F)o3)ccc2CN1[C@@H]1CCCC[C@H]1N1CC(F)(F)C(F)(F)C(F)(F)C1 [Example 531, 6-(5-(difluoromethyl)-1,3,4-oxadiazol-2-yl)-2-((1R,2R)-2-(3,3,4,4,5,5-hexafluoropiperidin-1-yl)cyclohexyl)isoindolin-1-one]	100
